Laboratory results as given in PubChem BioAssay AID1159558 (GlaxoSmithKline (GSK), 2015).
The source made the active and inactive calls.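 The calls were made as follows: active = IC50 against T. cruzi CYP51 below a set limit; inactive = the rest.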

Molecular target: Sterol 14-alpha demethylase (Trypanosoma cruzi (strain CL Brener)) (UniProt Q7Z1V1)
Assay: TcCYP51 inhibitors, dose response, mechanism study for T. cruzi antiparasitic project, biochemical, recombinant enzyme (AID 1159558);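 also: enzyme in bacterial membranes with Anopheles gambiae CYP reductase and cytochrome b5 partners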
Details: recombinant T. cruzi CYP51, BOMCC fluorescence

Sterol 14-alpha demethylase (Trypanosoma cruzi (strain CL Brener)), sequence (Q7Z1V1 whole entry, looked up): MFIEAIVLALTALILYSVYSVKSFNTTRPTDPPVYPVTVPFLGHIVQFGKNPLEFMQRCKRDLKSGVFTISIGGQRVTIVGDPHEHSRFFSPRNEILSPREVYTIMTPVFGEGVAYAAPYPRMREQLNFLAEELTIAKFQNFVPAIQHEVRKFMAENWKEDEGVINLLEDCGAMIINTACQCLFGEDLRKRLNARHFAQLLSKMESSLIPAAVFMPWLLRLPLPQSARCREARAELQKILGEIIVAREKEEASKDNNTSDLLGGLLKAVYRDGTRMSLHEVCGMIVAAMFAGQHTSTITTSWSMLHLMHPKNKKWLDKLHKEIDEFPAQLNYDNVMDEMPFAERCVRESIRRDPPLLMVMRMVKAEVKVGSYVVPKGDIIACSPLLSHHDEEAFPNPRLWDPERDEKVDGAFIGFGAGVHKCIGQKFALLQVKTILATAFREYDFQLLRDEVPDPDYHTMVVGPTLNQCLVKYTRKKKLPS

Row | SMILES | IC50
1 | Cc1cc(Oc2cc(Cl)c(Cl)cc2Cl)n2ncnc2n1 | > 100 µM (inactive)
2 | COc1cc(F)c2ncc(F)c(CCN3CC[C@H](NCc4cc5c(cn4)OCS5)[C@@H](O)C3)c2c1 | 32 µM
3 | CC(C)c1nn(-c2nc(N)nc(-c3ccccn3)n2)c(N)c1C1CCCCC1 | 3.2 µM
4 | Cc1c([N+](=O)[O-])c(C(=O)Nc2sc3c(c2C#N)CCC(C)C3)nn1C (centres undefined) | > 100 µM (inactive)
5 | Nc1nc(-c2ccccn2)nc(-n2nc(-c3ccccc3)cc2N)n1 | > 100 µM (inactive)
6 | CN(Cc1ccccc1)Cc1nnnn1C1CCN(Cc2ccc(-n3ccnc3)cc2)CC1 | 0.05 µM
7 | Cc1cc(NC(=O)C2CC2)ccc1OC1CCN(Cc2ccco2)CC1 | 63 µM
8 | COc1ncc(-c2ccc3nccc(-c4ccncc4)c3c2)cc1NS(=O)(=O)C1CC1 | 7.9 µM
9 | COc1ccc(C(=O)NC2CCN(CCn3c(=O)ccc4ncc(F)cc43)CC2)cc1Cl | 16 µM
10 | CC(Cn1ccnc1)NC(=O)COc1ccc(Cl)c(Cl)c1 (centres undefined) | 0.063 µM
11 | CCN(Cc1cccs1)C(=O)CSc1nnc(-c2ccc3c(c2)OCO3)o1 | 7.9 µM
12 | CN(C)CCN(C)Cc1ccc(F)cc1NS(=O)(=O)c1ccc(Cl)c(Cl)c1 | > 130 µM (inactive)
13 | Cc1cc(Nc2cc(C3CC3)[nH]n2)nc(N2CCCC2)n1 | > 100 µM (inactive)
14 | c1ccc(CNc2cccc3ccncc23)cc1 | 0.1 µM
15 | CC(C)(C)C(O)(CCc1ccc(Cl)cc1)Cn1cncn1 (centres undefined) | 0.13 µM
16 | Cc1nc2nc(C)c(Cc3ccc(C(C)C)cc3)c(=O)n2[nH]1 | > 100 µM (inactive)
17 | CCN(CC)S(=O)(=O)c1ccc(Cn2nc(C(=O)Nc3ccncn3)c3ccccc32)cc1 | 0.16 µM
18 | CN(Cc1cccnc1)Cc1ccc(N2CCN(C(=O)C3(c4ccc(Cl)cc4)CC3)CC2)nc1 | 0.16 µM
19 | Cc1ccc(S(=O)(=O)Cn2nnnc2C(c2cccnc2)N2CCN(c3ccccc3)CC2)cc1 (centres undefined) | 0.2 µM
20 | CCC(=O)N1N=C(c2ccc3c(c2)CCCC3)Sc2c1ncn2C(=O)CC | > 100 µM (inactive)

Row | SMILES | IC50
21 | Cc1ccc(C)c(CN2C(=O)NC3(CCc4ccccc43)C2=O)c1 (centres undefined) | 40 µM
22 | CNc1c(C(N)=O)c(-c2ccc3scnc3c2)nn1CC(F)(F)F | > 100 µM (inactive)
23 | Cc1ccc2onc(Nc3ccnc(Nc4cccc(S(C)(=O)=O)c4)n3)c2c1 | 40 µM
24 | Cc1ccccc1NS(=O)(=O)c1ccc2[nH]cc(C(=O)NC3CCCC(C)C3C)c(=O)c2c1 (centres undefined) | 5 µM
25 | Cc1nc2c(-c3cccs3)c(C)nn2c(NCCO)c1C | > 100 µM (inactive)
26 | Cn1ccnc1CN1CCc2[nH]cnc2C1c1ccccc1OCc1ccccc1 (centres undefined) | 7.9 µM
27 | COc1ccc([N+](=O)[O-])cc1NC(=O)c1cc(Cl)ccc1O | > 100 µM (inactive)
28 | CC(C)c1cc(Nc2cc(Cc3ccccc3)nc(NC3CCC(O)CC3)n2)n[nH]1 (centres undefined) | 20 µM
29 | Cc1[nH]n2c(=O)c3c(nc2c1-c1ccc(Cl)cc1)CCCC3 | > 100 µM (inactive)
30 | Cc1ccc(S(C)(=O)=O)cc1Nc1nccc(-c2sc(N)nc2-c2ccccc2)n1 | > 100 µM (inactive)
31 | O=C(NCc1ccc(-n2cccc2)cc1)c1nc(Cn2ccc([N+](=O)[O-])n2)no1 | > 100 µM (inactive)
32 | CC(C)CC(=O)Nc1cc(C2CC2)nn1-c1nc2c(c(=O)[nH]1)CCCC2 | > 100 µM (inactive)
33 | O=C(Nc1ccc(C(F)(F)F)cc1)Nc1cccc([N+](=O)[O-])c1 | 6.3 µM
34 | O=[N+]([O-])c1ccc(-c2nnn(-c3ccc(Cl)cc3)n2)o1 | > 100 µM (inactive)
35 | CCN(Cc1ccncc1)Cc1ccc(NC(=O)c2cc(-c3ccc(F)cc3)n[nH]2)cc1 | 0.079 µM
36 | O=C(c1cnn(-c2ccccc2)n1)N1CCCC(n2ccnc2)C1 (centres undefined) | 0.079 µM
37 | O=C1NCCn2ccc(Nc3nc(NC4CCC(O)CC4)ncc3Cl)c21 (centres undefined) | > 100 µM (inactive)
38 | COc1ccc(CN2CCCCC2c2nc(-c3cccnc3)no2)cc1 (centres undefined) | 0.2 µM
39 | COc1cnc2ccc(=O)n(CCN3CCC(NC(=O)c4ccc(Cl)cc4)CC3)c2c1 | 10 µM
40 | CCOc1ccccc1C(=O)Nc1nnc(-c2ccc3c(c2)OCO3)s1 | > 100 µM (inactive)

Row | SMILES | IC50
41 | O=C1NCc2cccc(Nc3nc(NC4CCC(O)CC4)ncc3Br)c21 (centres undefined) | > 100 µM (inactive)
42 | CCC(c1ccc(F)cc1)n1cncc1-c1cnn(C)c1 (centres undefined) | 0.079 µM
43 | O=C(NCCCn1cnc2ccccc21)c1ccc(NC(=O)c2ccco2)cc1 | 16 µM
44 | CCN(Cc1nc2ccc(C(=O)N3CCN(c4ncccn4)CC3)cc2[nH]1)C1CCCc2cccnc21 (centres undefined) | 7.9 µM
45 | CCN(CC)c1nc(N(C)C)nc2c1CN(Cc1ccccc1)CC2 | 10 µM
46 | Clc1ccc(OCCN2CCCCC2c2cccnc2)c(Cl)c1 (centres undefined) | 0.063 µM
47 | O=C1CSC(c2cccnc2)N1c1ccc(Cl)cc1Cl (centres undefined) | 0.16 µM
48 | O=C(c1ccc(Cl)cc1)c1ccc(OC(=O)N2CCOCC2)cc1 | 40 µM
49 | COc1ccc(Oc2ccc(C(C)N(C)c3ncc4c(N)nc(N)nc4n3)cc2)cc1 (centres undefined) | 1.6 µM
50 | CCCN1CCN(Cc2ccc(S(=O)(=O)Nc3cccc(C)c3)cc2)CC1 | > 100 µM (inactive)
51 | Cc1ccc(C)c(OC2CCN(C(=O)C(C)n3ccnc3)CC2)c1 (centres undefined) | 0.1 µM
52 | Cc1cc(Br)cc(C(=O)c2c(C(C)C)c(=O)[nH]c(=O)n2Cc2ccnc(N)c2)c1 | 0.016 µM
53 | N#Cc1c(Oc2cccc(Cl)c2)cccc1[N+](=O)[O-] | > 100 µM (inactive)
54 | CCCc1cc(N)nc(-c2cc(CCC)cc(N)n2)c1 | > 100 µM (inactive)
55 | Nc1nccc(-c2csc(Nc3ccc(Cl)cc3)n2)n1 | 1.3 µM
56 | Cc1occc1C(=O)Nc1ccccc1C(=O)Nc1nccs1 | > 100 µM (inactive)
57 | Cn1nc(C(=O)N2CCc3ccccc32)c2c1CCS(=O)(=O)C2 | > 100 µM (inactive)
58 | Cc1ccc(NC(=O)c2ccc([N+](=O)[O-])s2)cc1S(=O)(=O)N1CCOCC1 | 20 µM

Results, then the compound that gave them:

Row | IC50 | SMILES
59 | > 100 µM (inactive) | CCCNC(=O)Nc1cccc(-c2nc3ncccc3o2)c1
60 | > 100 µM (inactive) | Cc1cc(N(C)C)nc2ccc(Cc3cnc(N)nc3N)cc12
61 | > 100 µM (inactive) | Cc1ccc(C)c(-n2nnnc2Sc2nc([N+](=O)[O-])nn2C)c1
62 | 1.3 µM | Cc1ccc(NC(=O)c2ccnc(N3CCCC3)c2)cc1-c1ccsc1C(N)=O
63 | 40 µM | CN(C)S(=O)(=O)c1ccc(-c2cnc(N)c(-c3nc4ccc(F)cc4[nH]3)c2)cc1
64 | > 100 µM (inactive) | CCC(=O)Nc1ccc(-c2nc3ccc(Cl)cc3[nH]2)cc1
65 | 10 µM | NC(=O)c1cc(F)ccc1Nc1nc(NC2CCC(O)CC2)ncc1Br (centres undefined)
66 | > 100 µM (inactive) | O=C1c2cnc(N3CCCC3)nc2CN1c1ccc2c(c1)OCO2
67 | 25 µM | CN(C)CCOc1ccc(N2CCN(S(=O)(=O)c3ccc(Cl)cc3)CC2)cc1
68 | 50 µM | O=C(CCCn1cnc([N+](=O)[O-])n1)Nc1cccc(Cl)c1
69 | 25 µM | O=C(NCCc1nc(-c2ccc(F)c(F)c2)n[nH]1)C1CCCCC1
70 | > 100 µM (inactive) | CC(C)Oc1ccc(C(=O)Nc2ccc(N3CCOCC3)c(Cl)c2)cc1
71 | 7.9 µM | Cc1cc(C)cc(NS(=O)(=O)c2cc(-c3cc(C)[nH]n3)ccc2C)c1
72 | 79 µM | OCC1CCCCN1c1cc(-c2ccccn2)nc(Nc2ccccc2)n1 (centres undefined)
73 | > 100 µM (inactive) | c1ccc(Nc2nc3ccccc3[nH]2)nc1
74 | 0.1 µM | CC(C)(C)C(Cn1ccnc1)NC(=O)c1ccc2nc(C3CC3)oc2c1 (centres undefined)
75 | 20 µM | C=CCn1nc([N+](=O)[O-])nc1Oc1ccc(Cl)cc1Cl
76 | > 100 µM (inactive) | Cc1ccc(S(=O)(=O)Nc2ccc(CN3CCN(C(=O)c4cccc(C#N)c4)CC3)cc2)cc1
77 | 25 µM | COCc1cnc2c(c1SCc1c(F)cccc1Cl)c(=O)n(C)c(=O)n2C
78 | 50 µM | CCCCn1nnnc1CSc1nc(C)cc(C)c1C#N
79 | 63 µM | COc1ccccc1-n1c(SCC(=O)Nc2ccc3c(c2)OCO3)nc2c(c1=O)SCC2
80 | 25 µM | CC(c1ccc2c(c1)CCCC2)N(C)c1ncc2c(N)nc(N)nc2n1 (centres undefined)
81 | 0.04 µM | COc1ccc(-c2nc3ccncc3c(=O)n2CCOc2ccccc2)cc1

Row | IC50 | SMILES
82 | > 100 µM (inactive) | c1ccc(-c2nc(NCc3ccco3)c3ccccc3n2)nc1
83 | 20 µM | O=C(c1cccc(Nc2ncc(-c3ccc4c(c3)OCO4)cn2)c1)N1CCOCC1
84 | 50 µM | CCOC(=O)c1cn[nH]c1S(=O)(=O)N1CCC1c1ccccc1 (centres undefined)
85 | > 100 µM (inactive) | O=c1cc(NCCCNCc2c[nH]c3ccc(Br)cc23)[nH]c2ccccc12
86 | 79 µM | Nc1cc(-c2ccc3ncnc(N4CCOCC4)c3c2)cnc1N
87 | 25 µM | COc1ccc2ncc(=O)n(CCN3CCC(NCc4ccc(-c5cccs5)cc4)CC3)c2n1
88 | 6.3 µM | CC(=O)Nc1ccc(-c2csc(NC(=O)c3ccc([N+](=O)[O-])s3)n2)cc1
89 | 20 µM | CS(=O)(=O)c1ccccc1C(=O)N(Cc1ccccc1)c1ccccc1
90 | 25 µM | COc1ccc(-c2cnc(C)o2)cc1S(=O)(=O)Nc1ccc(C)cc1C
91 | > 100 µM (inactive) | O=C(Nc1ccc(Br)c(Cl)c1)Nc1ccc2c(c1)OCO2
92 | > 100 µM (inactive) | CNC(=O)C1Cc2ccccc2N1C(=O)Cc1ccc(OC)cc1 (centres undefined)
93 | > 100 µM (inactive) | COc1ccc(OC)c(S(=O)(=O)N(Cc2c(F)cccc2F)[C@@H]2CCN(C#N)C2)c1
94 | > 100 µM (inactive) | Nc1nc(-c2ccccc2)cc(-c2nc3ncccc3[nH]2)n1
95 | > 100 µM (inactive) | Cc1cccnc1CN1CCN(CCCOc2ccc(-c3ccc(C(N)=O)cc3)cc2)CC1
96 | 25 µM | Cc1nnnn1-c1cccc(C(=O)N2CCC[C@@]3(C)c4ncncc4CCC23)c1 (some centres undefined)
97 | > 100 µM (inactive) | O=c1[nH]cnc2c([C@@H]3O[C@H](CO)[C@@H](O)[C@H]3O)[nH]nc12
98 | 0.063 µM | c1ccc2c(CCOc3nccnc3-c3ccncc3)c[nH]c2c1
99 | > 100 µM (inactive) | CN1CCN(c2nc(-c3ccc(Cl)cc3)c3c(N)n(C)nc3n2)CC1
100 | > 100 µM (inactive) | Cc1c(C#N)c([N+](=O)[O-])nn1Cc1cccc(Cl)c1Cl
101 | > 100 µM (inactive) | COc1ccccc1C(=O)Nc1nnc(-c2ccc3c(c2)OCO3)s1
102 | 40 µM | CCNc1cc(-c2ccccn2)nc(Nc2ccc(OC)cc2)n1
103 | > 100 µM (inactive) | CCc1c(C)nc(-n2nc(C)cc2NC(=O)COc2ccccc2F)[nH]c1=O
104 | 25 µM | O=c1cc(NCCCNCc2cc(C(F)(F)F)cs2)[nH]c2ccccc12
